Laboratory results published in US12378249B2, “Isoquinoline compounds and uses thereof” (Genentech, Inc., priority 2018, dated 2025).

What follows are compounds tested against HPK1 (Homo sapiens (Human), UniProt Q92918, S171E/T165E) (assay: HPK1-FL HTRF Enzymatic Assay (HTRF)). Settings: HPK full length T165E S171E 0.125 nM, ATP 1 mM, Biotin-SLP76 100 nM, read-out: HPK1 Ki (nM), H = HTRF.
Format: biochemical
How it was run: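 Full-length HPK1 double mutant, preincubated 30 min with compound, then phosphorylates Biotin-SLP-76 at 1 mM ATP for 60 min in HEPES pH 7.5/MgCl2/TCEP/Brij-35 buffer. Phospho-product detected by TR-FRET (Eu-anti-pSLP76, SA-XL665) after 60 min; 665/620 ratio gives % activity, from which Ki is determined.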

HPK1, sequence (Q92918 whole entry T165E/S171E): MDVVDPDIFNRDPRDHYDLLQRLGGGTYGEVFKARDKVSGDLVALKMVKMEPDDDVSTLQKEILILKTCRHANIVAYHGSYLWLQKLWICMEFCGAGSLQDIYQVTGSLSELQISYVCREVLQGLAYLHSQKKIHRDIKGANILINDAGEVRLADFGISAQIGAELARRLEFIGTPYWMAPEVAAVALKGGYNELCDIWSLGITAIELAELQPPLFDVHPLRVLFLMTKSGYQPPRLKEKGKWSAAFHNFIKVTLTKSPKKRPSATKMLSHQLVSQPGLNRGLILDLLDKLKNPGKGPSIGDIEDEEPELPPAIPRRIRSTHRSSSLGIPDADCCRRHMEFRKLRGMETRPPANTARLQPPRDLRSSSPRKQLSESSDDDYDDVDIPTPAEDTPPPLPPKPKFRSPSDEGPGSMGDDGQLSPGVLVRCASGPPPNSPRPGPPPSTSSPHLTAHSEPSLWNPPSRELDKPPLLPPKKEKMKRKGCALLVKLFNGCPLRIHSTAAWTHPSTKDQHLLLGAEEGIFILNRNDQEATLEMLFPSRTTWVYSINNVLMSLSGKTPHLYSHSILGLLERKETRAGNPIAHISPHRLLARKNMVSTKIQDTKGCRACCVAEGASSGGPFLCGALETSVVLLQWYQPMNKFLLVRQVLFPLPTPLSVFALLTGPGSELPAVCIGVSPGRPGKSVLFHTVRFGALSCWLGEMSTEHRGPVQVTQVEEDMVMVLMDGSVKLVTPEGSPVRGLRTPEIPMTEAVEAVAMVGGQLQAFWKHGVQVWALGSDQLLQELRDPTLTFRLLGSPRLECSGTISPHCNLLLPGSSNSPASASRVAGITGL

Question: For `Cc1c(-c2cc3cc(Nc4cc5n(n4)CC(=O)N(C)CC5)ncc3cc2F)cnc2c1NCC(C)(C)[C@@H]2O` (single isomer, unassigned) [Compound 241b], which Ki is on record?
Answer: 0.265 nM

Question: `CNCc1cccc(-c2cc3cc(Nc4cc5n(n4)CC(=O)N(C)CC5)ncc3cc2F)c1C` [Compound 217, 2-((7-fluoro-6-(2-methyl-3-((methylamino)methyl)phenyl)isoquinolin-3-yl)amino)-6-methyl-5,6-dihydro-4H-pyrazolo[1,5-d][1,4]diazepin-7(8H)-one] was tested. Which Ki did it give?
Answer: 64 nM

Question: With `Cc1c(-c2cc3cc(Nc4cc5n(n4)CC(=O)NCC5)ncc3cc2F)cnc2c1NC(C)CO2` (racemic) [Compound 182, (+/−)-2-((6-(2,8-dimethyl-2,3-dihydro-1H-pyrido[2,3-b][1,4]oxazin-7-yl)-7-fluoroisoquinolin-3-yl)amino)-5,6-dihydro-4H-pyrazolo[1,5-d][1,4]diazepin-7(8H)-one] as the compound, how does the Ki read?
Answer: 0.073 nM

Question: With `Cc1c(CN)cccc1-c1cc2cc(Nc3cc4n(n3)CC(=O)N(C)CC4)ncc2cc1F` [Compound 207, 2-((6-(3-(aminomethyl)-2-methylphenyl)-7-fluoroisoquinolin-3-yl)amino)-6-methyl-5,6-dihydro-4H-pyrazolo[1,5-d][1,4]diazepin-7(8H)-one] as the compound, how does the Ki read?
Answer: 22 nM

Question: `Cc1c(N)cncc1-c1cc2cc(Nc3cc4n(n3)CC(=O)N(C)CC4(F)F)ncc2cc1F` [Compound 127, 2-[[6-(5-amino-4-methyl-3-pyridyl)-7-fluoro-3-isoquinolyl]amino]-4,4-difluoro-6-methyl-5,8-dihydropyrazolo[1,5-d][1,4]diazepin-7-one] was tested. Which Ki did it give?
Answer: 0.04 nM

Question: For `Cc1c(-c2cc3cc(Nc4cc5n(n4)Cc4nccn4CC5)ncc3cc2F)cnc2c1NCCCO2` [Compound 183, N-(7-fluoro-6-(9-methyl-1,2,3,4-tetrahydropyrido[2,3-b][1,4]oxazepin-8-yl)isoquinolin-3-yl)-5,6-dihydro-11H-imidazo[1,2-a]pyrazolo[1,5-d][1,4]diazepin-8-amine], which Ki is on record?
Answer: 0.013 nM

Question: For `CNc1cncc(-c2cc3cc(Nc4cc5n(n4)CC(=O)NCC5)ncc3cc2F)c1C` [Compound 181, 2-((7-fluoro-6-(4-methyl-5-(methylamino)pyridin-3-yl)isoquinolin-3-yl)amino)-5,6-dihydro-4H-pyrazolo[1,5-d][1,4]diazepin-7(8H)-one], which Ki is on record?
Answer: 0.026 nM

Question: For `CNCc1cc(-c2ccc3cnc(Nc4cc5n(n4)CC(=O)N(C)CC5)cc3c2)c(F)cc1C` [Compound 220, 2-((6-(2-fluoro-4-methyl-5-((methylamino)methyl)phenyl)isoquinolin-3-yl)amino)-6-methyl-5,6-dihydro-4H-pyrazolo[1,5-d][1,4]diazepin-7(8H)-one], which Ki is on record?
Answer: 176 nM

Question: How did the Ki turn out when `Cc1c(-c2cc3cc(Nc4cc5n(n4)CC(=O)N(C(C)C)CC5)ncc3c(F)c2F)cnc2c1NCCO2` [Compound 135, 2-((7,8-difluoro-6-(8-methyl-2,3-dihydro-1H-pyrido[2,3-b][1,4]oxazin-7-yl)isoquinolin-3-yl)amino)-6-isopropyl-5,6-dihydro-4H-pyrazolo[1,5-d][1,4]diazepin-7(8H)-one] was run?
Answer: 0.038 nM

Question: Which Ki does the source give for `Cc1c(-c2cc3cc(Nc4cc5n(n4)CC(=O)N(C)CC5)ncc3cc2F)cnc2nc[nH]c12` [Compound 175, 2-((7-fluoro-6-(7-methyl-1H-imidazo[4,5-b]pyridin-6-yl)isoquinolin-3-yl)amino)-6-methyl-5,6-dihydro-4H-pyrazolo[1,5-d][1,4]diazepin-7(8H)-one] here?
Answer: 0.14 nM

Question: With `Cc1c(-c2cc3cc(Nc4cc5n(n4)CC(=O)N([C@@H](C)CO)CC5)ncc3cc2F)cnc2c1NCCO2` (single isomer, unassigned) [Compound 148a] as the compound, how does the Ki read?
Answer: 0.013 nM

Question: For `CC(=O)Nc1cncc(-c2cc3cc(Nc4cc5n(n4)CC(=O)N(C)CC5)ncc3cc2F)c1C` [Compound 171, N-(5-(7-fluoro-3-((6-methyl-7-oxo-5,6,7,8-tetrahydro-4H-pyrazolo[1,5-d][1,4]diazepin-2-yl)amino)isoquinolin-6-yl)-4-methylpyridin-3-yl)acetamide], which Ki is on record?
Answer: 1.78 nM

Question: How did the Ki turn out when `Cc1c(-c2cc3cc(Nc4cc5n(n4)CC(=O)N(C)CC5)ncc3cc2F)cnc2cn[nH]c12` [Compound 186, 2-((7-fluoro-6-(7-methyl-1H-pyrazolo[4,3-b]pyridin-6-yl)isoquinolin-3-yl)amino)-6-methyl-5,6-dihydro-4H-pyrazolo[1,5-d][1,4]diazepin-7(8H)-one] was run?
Answer: 0.12 nM

Question: `Cc1c(N)cncc1-c1cc2cc(Nc3cc4n(n3)CC(=O)N(C)CC4(C)O)ncc2cc1F` (single isomer, unassigned) [Compound 185b] was tested. Which Ki did it give?
Answer: 0.037 nM

Question: `Cc1c(CS(C)(=O)=O)cncc1-c1cc2cc(Nc3cc4n(n3)CC(=O)N(C)CC4)ncc2cc1F` [Compound 204, 2-((7-fluoro-6-(4-methyl-5-((methylsulfonyl)methyl)pyridin-3-yl)isoquinolin-3-yl)amino)-6-methyl-5,6-dihydro-4H-pyrazolo[1,5-d][1,4]diazepin-7(8H)-one] was tested. Which Ki did it give?
Answer: 0.18 nM

Question: How did the Ki turn out when `Cc1c(-c2cc3cc(Nc4cc5n(n4)CC(=O)N(C)CC5)ncc3cc2F)cnc2c1[C@H](F)CCO2` (single isomer, unassigned) [Compound 235b] was run?
Answer: 0.127 nM

Question: With `CNC1CCN(c2cc(C)c(-c3cc4cc(Nc5cc6n(n5)CC(=O)N(C)CC6)ncc4cc3F)cn2)CC1` [Compound 199, 2-((7-fluoro-6-(4-methyl-6-(4-(methylamino)piperidin-1-yl)pyridin-3-yl)isoquinolin-3-yl)amino)-6-methyl-5,6-dihydro-4H-pyrazolo[1,5-d][1,4]diazepin-7(8H)-one] as the compound, how does the Ki read?
Answer: 5 nM

Question: `Cc1c(N)cncc1-c1cc2cc(Nc3cc4n(n3)CS(=O)(=O)N(C)CC4C)ncc2cc1F` (centres unmarked) [Compound 113, 2-((6-(5-amino-4-methylpyridin-3-yl)-7-fluoroisoquinolin-3-yl)amino)-4,6-dimethyl-5,6-dihydro-4H,8H-pyrazolo[5,1-e][1,2,6]thiadiazepine 7,7-dioxide] was tested. Which Ki did it give?
Answer: 1.2 nM

Question: For `Cc1c(-c2cc3cc(Nc4cc5n(n4)CC(=O)N(C)CC5)ncc3cc2F)cnc2c1[C@](C)(O)CCO2` (single isomer, unassigned) [Compound 226b], which Ki is on record?
Answer: 1.9 nM

Question: With `Cc1c(-c2cc3cc(Nc4cc5n(n4)CC(=O)N(C)OC5)ncc3cc2F)cnc2c1NCCO2` [Compound 244, 2-((7-fluoro-6-(8-methyl-2,3-dihydro-1H-pyrido[2,3-b][1,4]oxazin-7-yl)isoquinolin-3-yl)amino)-6-methyl-4H,6H-pyrazolo[1,5-e][1,2,5]oxadiazepin-7(8H)-one] as the compound, how does the Ki read?
Answer: 0.013 nM

Question: `COc1cc(C)c(-c2cc3cc(Nc4cc5n(n4)CC(=O)N(C)CC5)ncc3cc2F)cn1` [Compound 137, 2-((7-fluoro-6-(6-methoxy-4-methylpyridin-3-yl)isoquinolin-3-yl)amino)-6-methyl-5,6-dihydro-4H-pyrazolo[1,5-d][1,4]diazepin-7(8H)-one] was tested. Which Ki did it give?
Answer: 2.2 nM

Question: How did the Ki turn out when `Cc1c(-c2cc3cc(Nc4cc5n(n4)CC(=O)N(C(C)C)CC5)ncc3cc2F)cnc2c1NCCO2` [Compound 116, 2-((7-fluoro-6-(8-methyl-2,3-dihydro-1H-pyrido[2,3-b][1,4]oxazin-7-yl)isoquinolin-3-yl)amino)-6-isopropyl-5,6-dihydro-4H-pyrazolo[1,5-d][1,4]diazepin-7(8H)-one] was run?
Answer: 0.014 nM

Question: With `Cc1c(NCC(F)(F)F)cncc1-c1cc2cc(Nc3cc4n(n3)CC(=O)NCC4)ncc2cc1F` [Compound 239, 2-((7-fluoro-6-(4-methyl-5-((2,2,2-trifluoroethyl)amino)pyridin-3-yl)isoquinolin-3-yl)amino)-5,6-dihydro-4H-pyrazolo[1,5-d][1,4]diazepin-7(8H)-one] as the compound, how does the Ki read?
Answer: 0.062 nM
